US8629112B2, “Template-fixed peptidomimetics with CXCR7 modulating activity” (priority 2010, dated 2014)
Like-named read-outs stand apart in the source and are kept apart here. Square brackets hold non-standard residues; d marks the D form. Peptide text beside a SMILES is read from it. * marks the point of attachment. 1Nal = N[C@@H](Cc1cccc2ccccc12)C(=O)O; 2Nal = N[C@@H](Cc1ccc2ccccc2c1)C(=O)O; cisHyp = O=C(O)[C@@H]1C[C@H](O)CN1; Tic = O=C(O)[C@@H]1Cc2ccccc2CN1; dTic = O=C(O)[C@H]1Cc2ccccc2CN1; Aze = O=C(O)[C@@H]1CCN1; Dab = NCC[C@H](N)C(=O)O; Bn = c1ccc(C*)cc1

Biological target: T1, CXCR7 (Homo sapiens, UniProt P25106)
T1 construct: host or cells: CHO (PathHunter CHO-CXCR7 β-arrestin cells)
T1 sequence (P25106 whole entry): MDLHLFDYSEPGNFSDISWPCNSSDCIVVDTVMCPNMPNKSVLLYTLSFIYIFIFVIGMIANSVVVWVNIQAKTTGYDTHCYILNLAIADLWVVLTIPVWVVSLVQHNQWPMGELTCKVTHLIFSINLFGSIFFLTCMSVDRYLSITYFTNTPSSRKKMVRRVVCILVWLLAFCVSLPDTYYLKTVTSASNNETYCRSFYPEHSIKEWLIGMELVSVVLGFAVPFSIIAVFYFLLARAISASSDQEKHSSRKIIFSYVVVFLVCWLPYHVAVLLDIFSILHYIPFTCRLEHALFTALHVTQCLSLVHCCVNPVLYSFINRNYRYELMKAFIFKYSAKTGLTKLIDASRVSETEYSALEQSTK
Test: CXCR7 β-arrestin recruitment assay (PathHunter CHO-CXCR7, agonistic assay)
Assay type: cell-based
Protocol: Lyophilized peptides were weighed on a Microbalance (Mettler MX5) and dissolved in DMSO to a final concentration of 10 mM unless otherwise stated. Stock solutions were kept at +4° C., and protected from light.
2.2 CXCR7 β-Arrestin Recruitment Assay
The PathHunter CHO-CXCR7 (DiscoverX) assay was performed according to the manufacturer's protocol. In brief, CHO CXCR7 β-arrestin cells were seeded at a density of 5000 cells per well in 40 μl of F12 medium in a 96-half volume well black culture plate and incubated overnight at 37° C. in a humidified atmosphere with 5% CO2. The next day, serial dilutions of PEM compounds have been prepared in DMSO and subsequently diluted in HBSS buffer containing 0.1% BSA.
For agonistic assay, 10 μl of compound solution or a solution of stromal cell-derived factor-1 (SDF-1) as positive control was added to the cells with a final DMSO concentration of 1% (v/v). The plate was incubated for 90 min at 37° C. in 5% CO2 incubator with gentle shaking (300 rpm) before addition of 40 ul of detection reagent per well. Reaction was developed 90 min at room temperature in the dark with shaking, and chemiluminescence was measured with a Topcount (Perkin Elmer) luminescence counter.

[1] = CHO CXCR7 β-arrestin cells, agonistic assay, 90 min at 37° C., chemiluminescence, read-out: β-Arrestin EC50

Row | Structure (SMILES) | EC50 [1] [nM] | EC50 [nM]
1 | N=C(N)NCCC[C@@H]1NC(=O)[C@H](Cc2c[nH]c3ccccc23)NC(=O)[C@@H](Cc2c[nH]c3ccccc23)NC(=O)[C@H](Cc2c[nH]c3ccccc23)NC(=O)[C@@H]2Cc3ccccc3CN2C(=O)[C@H]2CCCN2C1=O [Ex. 10, cyclo(-Trp-^DTrp-Trp-Arg-^DPro-Tic-)] (cyclo(R[dP][Tic]W[dW]W)) | 64.9 ± 113 | –
2 | O=C1N[C@@H](Cc2c[nH]cn2)C(=O)N2CCC[C@@H]2C(=O)N2Cc3ccccc3C[C@H]2C(=O)N[C@@H](Cc2c[nH]c3ccccc23)C(=O)N[C@H](Cc2ccccc2)C(=O)N[C@H]1Cc1c[nH]c2ccccc12 [Ex. 23, cyclo(-Trp-^DPhe-Trp-His-^DPro-Tic-)] (cyclo(H[dP][Tic]W[dF]W)) | 18.3 ± 17.6 | –
3 | N=C(N)NCCC[C@@H]1NC(=O)[C@H](Cc2c[nH]c3ccccc23)NC(=O)[C@@H](Cc2ccccc2)NC(=O)[C@H](Cc2ccc(O)cc2)NC(=O)[C@@H]2Cc3ccccc3CN2C(=O)[C@H]2CCCN2C1=O [compound 5, cyclo(-Tyr-^DPhe-Trp-Arg-^DPro-Tic-)] (cyclo(R[dP][Tic]Y[dF]W)) | – | 11.5 ± 9
4 | N=C(N)NCCC[C@@H]1NC(=O)[C@H](Cc2ccc3ccccc3c2)NC(=O)[C@@H](Cc2ccccc2)NC(=O)[C@H](Cc2c[nH]c3ccccc23)NC(=O)[C@@H]2Cc3ccccc3CN2C(=O)[C@H]2CCCN2C1=O [compound 17, cyclo(-Trp-^DPhe-2Nal-Arg-^DPro-Tic-)] (cyclo([2Nal]R[dP][Tic]W[dF])) | 16.9 ± 7.3 | –
5 | N=C(N)NCCC[C@@H]1NC(=O)[C@H](Cc2c[nH]c3ccccc23)NC(=O)[C@@H](Cc2ccccc2)NC(=O)[C@H](Cc2c[nH]c3ccccc23)NC(=O)[C@@H]2CCCN2C(=O)[C@H]2Cc3ccccc3CN2C1=O [Ex. 40, cyclo(-Trp-^DPhe-Trp-Arg-^DTic-Pro-)] (cyclo(PW[dF]WR[dTic])) | 83.6 ± 22.7 | –
6 | N=C(N)NCCC[C@@H]1NC(=O)[C@H](Cc2c[nH]c3ccccc23)NC(=O)[C@@H](Cc2ccccc2)NC(=O)[C@H](Cc2c[nH]c3ccccc23)NC(=O)[C@@H]2C[C@H](OCc3ccccc3)CN2C(=O)[C@H]2CCCN2C1=O [Ex. 27, cyclo(-Trp-^DPhe-Trp-Arg-^DPro-(4S)-Hyp(Bn)-)] (cyclo(R[dP][cisHyp](Bn)W[dF]W)) | 1.7 ± 1.1 | –
7 | N=C(N)NCCC[C@@H]1NC(=O)[C@H](Cc2c[nH]c3ccccc23)NC(=O)[C@@H](Cc2ccccc2)NC(=O)[C@H](Cc2ccccc2)NC(=O)[C@@H]2Cc3ccccc3CN2C(=O)[C@H]2CCCN2C1=O [Ex. 2, cyclo(-Phe-^DPhe-Trp-Arg-^DPro-Tic-)] (cyclo(F[dF]WR[dP][Tic])) | 22.5 ± 13.7 | –
8 | N=C(N)NCCC[C@@H]1NC(=O)[C@H](Cc2c[nH]c3ccccc23)NC(=O)[C@@H](CCCNC(=N)N)NC(=O)[C@H](Cc2c[nH]c3ccccc23)NC(=O)[C@@H]2Cc3ccccc3CN2C(=O)[C@H]2CCCN2C1=O [compound 13, cyclo(-Trp-^DArg-Trp-Arg-^DPro-Tic-)] (cyclo(R[dP][Tic]W[dR]W)) | 128 ± 32.5 | –
9 | CC[C@H](C)[C@@H]1NC(=O)[C@@H](Cc2c[nH]cn2)NC(=O)[C@H](Cc2cccc3ccccc23)NC(=O)[C@@H]2CCN2C(=O)[C@H]2CCCN2C(=O)[C@H](CCCNC(=N)N)NC1=O [Ex. 42, cyclo(-1Nal-^DHis-Ile-Arg-^DPro-Azt-)] (cyclo([1Nal][dH]IR[dP][Aze])) | 85.7 ± 76.6 | –
10 | N=C(N)NCCC[C@@H]1NC(=O)[C@H](Cc2c[nH]c3ccccc23)NC(=O)[C@@H](Cc2ccccc2)NC(=O)[C@H](Cc2c[nH]c3ccccc23)NC(=O)[C@@H]2Cc3ccccc3CN2C(=O)[C@H]2CCCN2C1=O [compound 9, cyclo(-Trp-^DPhe-Trp-Arg-^DPro-Tic-)] (cyclo(R[dP][Tic]W[dF]W)) | 4.8 ± 4.4 | –
11 | N=C(N)NCCC[C@@H]1NC(=O)[C@H](Cc2ccccc2)NC(=O)[C@@H](Cc2ccccc2)NC(=O)[C@H](Cc2c[nH]c3ccccc23)NC(=O)[C@@H]2Cc3ccccc3CN2C(=O)[C@H]2CCCN2C1=O [compound 15, cyclo(-Trp-^DPhe-Phe-Arg-^DPro-Tic-)] (cyclo(FR[dP][Tic]W[dF])) | 75.7 ± 41.5 | –
12 | N=C(N)NCCC[C@@H]1NC(=O)[C@H](Cc2c[nH]c3ccccc23)NC(=O)[C@@H](Cc2c[nH]cn2)NC(=O)[C@H](Cc2c[nH]c3ccccc23)NC(=O)[C@@H]2Cc3ccccc3CN2C(=O)[C@H]2CCCN2C1=O [compound 11, cyclo(-Trp-^DHis-Trp-Arg-^DPro-Tic-)] (cyclo(R[dP][Tic]W[dH]W)) | 204 ± 8.1 | –

Further lines, with some results ahead:

Row | EC50 [1] [nM] | Structure (SMILES) | EC50 [nM]
13 | 12.6 ± 1.6 | NCC[C@@H]1NC(=O)[C@H](Cc2c[nH]c3ccccc23)NC(=O)[C@@H](Cc2ccccc2)NC(=O)[C@H](Cc2c[nH]c3ccccc23)NC(=O)[C@@H]2Cc3ccccc3CN2C(=O)[C@H]2CCCN2C1=O [compound 22, cyclo(-Trp-^DPhe-Trp-Dab-^DPro-Tic-)] (cyclo([Dab][dP][Tic]W[dF]W)) | –
14 | 347 ± 110 | CC[C@H](C)[C@@H]1NC(=O)[C@@H](Cc2c[nH]cn2)NC(=O)[C@H](Cc2cccc3ccccc23)NC(=O)[C@@H]2Cc3ccccc3CN2C(=O)[C@H]2CCCN2C(=O)[C@H](CCCNC(=N)N)NC1=O [compound 29, cyclo(-1Nal-^DHis-Ile-Arg-^DPro-Tic-)] (cyclo([1Nal][dH]IR[dP][Tic])) | –
15 | 44.4 ± 25.4 | N=C(N)NCCC[C@@H]1NC(=O)[C@H](Cc2ccc(O)cc2)NC(=O)[C@@H](Cc2c[nH]cn2)NC(=O)[C@H](Cc2cccc3ccccc23)NC(=O)[C@@H]2CCN2C(=O)[C@H]2CCCN2C1=O [compound 45, cyclo(-1Nal-^DHis-Tyr-Arg-^DPro-Azt-)] (cyclo([1Nal][dH]YR[dP][Aze])) | –
16 | 226 ± 13.2 | N=C(N)NCCC[C@@H]1NC(=O)[C@H](Cc2c[nH]cn2)NC(=O)[C@@H](Cc2c[nH]c3ccccc23)NC(=O)[C@H](Cc2c[nH]cn2)NC(=O)[C@@H]2Cc3ccccc3CN2C(=O)[C@H]2CCCN2C1=O [compound 31, cyclo(-His-^DTrp-His-Arg-^DPro-Tic-)] (cyclo(HR[dP][Tic]H[dW])) | –
17 | 178 ± 102 | N=C(N)NCCC[C@@H]1NC(=O)[C@@H](Cc2ccccc2)NC(=O)[C@H](Cc2c[nH]c3ccccc23)NC(=O)[C@@H]2Cc3ccccc3CN2C(=O)[C@H]2CCCN2C(=O)[C@H](CCCNC(=N)N)NC1=O [compound 19, cyclo(-Trp-^DPhe-Arg-Arg-^DPro-Tic-)] (cyclo(RR[dP][Tic]W[dF])) | –
18 | 94.5 ± 54.1 | O=C1N[C@@H](Cc2ccc(O)cc2)C(=O)N2CCC[C@@H]2C(=O)N2Cc3ccccc3C[C@H]2C(=O)N[C@@H](Cc2c[nH]c3ccccc23)C(=O)N[C@H](Cc2ccccc2)C(=O)N[C@H]1Cc1c[nH]c2ccccc12 [compound 24, cyclo(-Trp-^DPhe-Trp-Tyr-^DPro-Tic-)] (cyclo([Tic]W[dF]WY[dP])) | –
19 | 170 ± 22.5 | N=C(N)NCCC[C@@H]1NC(=O)[C@H](Cc2c[nH]c3ccccc23)NC(=O)[C@@H](CCCNC(=N)N)NC(=O)[C@H](Cc2c[nH]c3ccccc23)NC(=O)[C@@H]2CCN2C(=O)[C@H]2CCCN2C1=O [compound 51, cyclo(-Trp-^DArg-Trp-Arg-^DPro-Azt-)] (cyclo([Aze]W[dR]WR[dP])) | –
20 | 342 ± 46.8 | N=C(N)NCCC[C@@H]1NC(=O)[C@H](Cc2c[nH]c3ccccc23)NC(=O)[C@@H](Cc2c[nH]cn2)NC(=O)[C@H](Cc2c[nH]c3ccccc23)NC(=O)[C@@H]2CCN2C(=O)[C@H]2CCCN2C1=O [compound 48, cyclo(-Trp-^DHis-Trp-Arg-^DPro-Azt-)] (cyclo([Aze]W[dH]WR[dP])) | –
21 | 16.5 ± 8 | NCCCC[C@@H]1NC(=O)[C@H](Cc2c[nH]c3ccccc23)NC(=O)[C@@H](Cc2ccccc2)NC(=O)[C@H](Cc2c[nH]c3ccccc23)NC(=O)[C@@H]2Cc3ccccc3CN2C(=O)[C@H]2CCCN2C1=O [compound 20, cyclo(-Trp-^DPhe-Trp-Lys-^DPro-Tic-)] (cyclo(K[dP][Tic]W[dF]W)) | –
22 | 344.5 ± 0.6 | CC[C@H](C)[C@@H]1NC(=O)[C@@H](Cc2c[nH]cn2)NC(=O)[C@H](Cc2c[nH]c3ccccc23)NC(=O)[C@@H]2CCN2C(=O)[C@H]2CCCN2C(=O)[C@H](CCCNC(=N)N)NC1=O [compound 47, cyclo(-Trp-^DHis-Ile-Arg-^DPro-Azt-)] (cyclo([Aze]W[dH]IR[dP])) | –
23 | 148 ± 96.8 | CC[C@H](C)[C@@H]1NC(=O)[C@@H](Cc2ccccc2)NC(=O)[C@H](Cc2c[nH]c3ccccc23)NC(=O)[C@@H]2Cc3ccccc3CN2C(=O)[C@H]2CCCN2C(=O)[C@H](CCCNC(=N)N)NC1=O [compound 18, cyclo(-Trp-^DPhe-Ile-Arg-^DPro-Tic-)] (cyclo(IR[dP][Tic]W[dF])) | –
24 | 234 ± 132 | N=C(N)NCCC[C@@H]1NC(=O)[C@@H]2Cc3ccccc3CN2C(=O)[C@H]2CCCN2C(=O)[C@H](CCCNC(=N)N)NC(=O)[C@H](Cc2c[nH]cn2)NC(=O)[C@@H](Cc2c[nH]c3ccccc23)NC1=O [compound 35, cyclo(-Arg-^DTrp-His-Arg-^DPro-Tic-)] (cyclo(HR[dP][Tic]R[dW])) | –
25 | 47.7 ± 21.9 | CC[C@H](C)[C@@H]1NC(=O)[C@@H](CCCNC(=N)N)NC(=O)[C@H](Cc2c[nH]c3ccccc23)NC(=O)[C@@H]2CCN2C(=O)[C@H]2CCCN2C(=O)[C@H](CCCNC(=N)N)NC1=O [compound 50, cyclo(-Trp-^DArg-Ile-Arg-^DPro-Azt-)] (cyclo([Aze]W[dR]IR[dP])) | –
26 | 348 ± 55.6 | N=C(N)NCCC[C@@H]1NC(=O)[C@H](Cc2c[nH]cn2)NC(=O)[C@@H](CCCNC(=N)N)NC(=O)[C@H](Cc2c[nH]c3ccccc23)NC(=O)[C@@H]2Cc3ccccc3CN2C(=O)[C@H]2CCCN2C1=O [compound 37, cyclo(-Trp-^DArg-His-Arg-^DPro-Tic-)] (cyclo(HR[dP][Tic]W[dR])) | –
